# According to patent US20100190737A1, “COMPOSITIONS COMPRISING INOSINE AND OROTIC ACID AND METHODS OF USE THEREOF FOR THE TREATMENT OF CERTAIN HEART CONDITIONS AND ENHANCEMENT OF WORK CAPACITY” (NUTRITIONAL RESEARCH GROUP LLC, priority 2009, published 2010):
# Experiments:
# [1] = tested on: rats with experimental aortic stenosis; assay: Short term (7 day) experimental aortic stenosis: heart weight and swimming to exhaustion; type: in vivo, rat; settings: EAS rats; for Heart Weight: intragastric daily
# Text: There are two 7 day experiments in this portion of the study; a preliminary 7 day study with 54 rats in 9 groups (6 rats per group) to determine optimal dosage levels for the separate inosine or potassium orotate ingredients for farther experimentation by determination of maximal heart weight development and work capacity; and then a study with 30 rats in 5 groups (6 rats per group) using the optimal single ingredient dosage levels for comparison with the results of a composition of the ingredients. All compounds were administered intragastrically through a tube after being dissolved in approximately 1 ml of water.
# A single control group received a sham operation, while the rest of the groups received experimental aortic stenosis (“EAS”) operations (all according to Beznak in Journal Physiol. (Lond.) 120.23P, 1953 as modified by Kogan, Bull eksper. Biol. Med., 26:112, 1961 and then the other 13 groups received various treatments and dosages of inosine or potassium orotate or a composition of the two ingredients after the optimal inosine and potassium orotate dosages were determined. All animals were tested at the beginning and end of the experiment for swimming to exhaustion times with a 7.5% body weight load attached to their tails.
# Sach compound, i.e., inosine and potassium orotate, was administered at different doses and the level of heart hypertrophy and work capacity was observed. Each of the compounds was evaluated in four doses: 12.5 mg/kg, 25 mg/kg, 50 mg/kg and 100 mg/kg body weight. Six animals were used in each group for inosine [4 groups] and potassium orotate [4 groups] plus the one control group (sham operated, no treatment); 54 animals in total.
# Thirty white rats were divided into 5 groups (6 animals in each group). Group I was a sham-operated control group, Group II animals with experimental aortic stenosis but were untreated, Groups III, IV & V animals, all with experimental aortic stenosis received by an intragastric tube each day, either inosine (25 mg/kg body weight), potassium orotate (50 mg/kg body weight) or an composition of inosine (25 mg/kg body weight) plus potassium orotate (50 mg/kg body weight), respectively.
# white rats = assay: Long-term (6 months) work capacity in trained and non-trained rats; settings: for Glycogen in m. quadriceps, After work / Glycogen in m. quadriceps, In rest: end of experiments; for Swimming time After 6 mo.: INO 25 mg/kg, PO 50 mg/kg
# Protocol: Seventy two white rats were randomly placed in 6 groups (12 animals each), to test the effectiveness of training and to determine morphological and physiological alterations in the rats. In Group I, control rats were nontrained and not administered either of inosine or the combination of inosine and orotate; Group II comprised non-trained rats to which were administered inosine (25 mg/kg/body weight; Group III comprised non-trained rats to which were administered the combination of inosine plus potassium orotate (25 mg/kg/body weight of inosine and 50 mg/kg/body weight potassium orotate); Group IV comprised trained rats that were not administered either of inosine or the combination of inosine and orotate; Group V comprised trained rats to which was administered inosine alone (25 mg/kg/body weight), and Group VI comprised trained rats to which was administered the combination of inosine plus potassium orotate (25 mg/kg/body weight of inosine and 50 mg/kg/body weight potassium orotate).
# Training of rats consisted of their forced swimming in a water bath (28-30° C.) with a weight fixed on their backs (7.5% of the rat body weight). During the first two weeks the animals swam daily for 5-10 minutes, after which we determined the individual maximum time of swimming to exhaustion (i.e. maximum work capacity) for each animal and then calculated the mean maximum time for each group. After 2 weeks these initial maximum work capacity values were used for planning and performing additional swimming training.
# The functional condition of the rats at rest was estimated from their work capacity (maximum swimming time), body weight increase, EKG tests, oxygen consumption and sodium and potassium levels in the myocardium in a relatively quiet state. The morphological state of the heart and other viscera were rated from their absolute and relative weights, and also from histological and histochemical examinations of the myocardium. Also determined were the amounts of glycogen in the m. quadriceps (quadriceps group of muscles) of the hip, the myocardium and the liver. All the quantitative results obtained were processed with conventional statistical procedures.
# [2] = tested on: chinchilla rabbits with experimental myocardial infarction; assay: Experimentally-induced myocardial infarction (coronary artery ligation); type: in vivo, rabbit; settings: for NN of Animals With Necrosis: of 10 animals; for EKG Q: oral 100 mg/kg BW of each ingredient daily
# Protocol: Histological, light microscopic methods of investigation have been employed to study the zone of necrosis, perinecrotic zone and myocardium regions spaced from the time of infarction by 7 and 14 days after the infarction event. Dynamic electrocardiographic observation over the animals was carried out during the first day and during the following 7 and 14 days. The study of the total cross-sectional patterns of a rabbit's heart has made it possible to precisely define these zones. The first Group of 10 animals was sham-operated without treatment (Group I, positive control-Intact, no MI). […] Group II animals were without treatment (negative control-MI Control).
# [3] = seventh day, inosine 25 mg/kg BW, potassium orotate 50 mg/kg BW, alone or together
# [4] = seventh day, inosine 25 mg/kg BW, potassium orotate 50 mg/kg BW, alone or together, listed as Inosine
compound,measurement,setting,value
OC[C@H]1O[C@@H](n2cnc3c(O)ncnc32)[C@H](O)[C@@H]1O [inosine],swimming time,"[1]; day 7, 12.5 mg/kg intragastrically, EAS control 15±5.0, sham 62±5.0",18 ± 2.0 min
same,swimming time,"[1]; day 7, 25 mg/kg",28 ± 3.0 min
same,swimming time,"[1]; day 7, 50 mg/kg",29 ± 3.0 min
same,swimming time,"[1]; day 7, 100 mg/kg",27.0 ± 3.0 min
same,relative heart weight,"[1]; seventh day, 12.5 mg/kg, EAS control 400±8.9, sham 300±5.0",410±9.0 mg/100 g. body weight
same,relative heart weight,"[1]; seventh day, 25 mg/kg",440±12 mg/100 g. body weight
same,relative heart weight,"[1]; seventh day, 50 mg/kg",442±12 mg/100 g. body weight
same,relative heart weight,"[1]; seventh day, 100 mg/kg",440±10 mg/100 g. body weight
same,swimming time,[1]; [3],31 ± 3.0 min
same,Heart Weight,[1]; [3],450±12 mg/100 gr BW
same,Heart Weight,[1]; [4],450 ± 12 mg/100 gr BW
same,swimming time,[1]; [4],31 ± 3.0 min
same,animal body weights,white rats; after 6 months,did not materially alter animal body weights
same,HEART RATE,white rats; after 6 months training,300 ± 5.2 beats per minute
same,PQ,white rats; after 6 months training,0.047 ± 0.03
same,QRS,white rats; after 6 months training,0.031 ± 0.004
same,QT,white rats; after 6 months training,0.076 ± 0.001
same,Systolic Index,white rats; after 6 months training,38 ± 6.3
same,ΣR,white rats; after 6 months training,17 ± 0.5 mm
same,"toxic effects on the functional state of the animals, morphology of the myocardium","white rats; rat, in vivo",did not manifest any toxic effects
same,Heart weight after 6 mo.,white rats; trained rats,359 ± 3.9 mg/100gk BW
same,ORGAN WEIGHT Heart,white rats; trained rats,359.3 ± 4.5 mg PER 100 GRAMs Body Weight
same,P/S In all rats group,white rats; trained rats,1.34 ± 0.12
same,P/S In quiet state,white rats; trained rats,1.16 ± 0.08
same,P/S In rat sacrificed after intense physical exercise,white rats; trained rats,1.55 ± 0.04
same,Potassium (myocardium),white rats; trained rats,0408 ± 0.015 mcq/gram dry tissue
same,Sodium (myocardium),white rats; trained rats,0.304 ± 0.018 mcq/gram dry tissue
same,Swimming time Before,white rats; trained rats,65 ± 6.6 min
same,"Glycogen in m. quadriceps, After work",white rats; trained rats,558 ± 13.4
same,"Glycogen in m. quadriceps, In rest",white rats; trained rats,889 ± 26.0
same,Swimming time After 6 mo.,"white rats; trained rats, trained control 142 ± 2.4",180 ± 3.4 min
same,Heart weight after 6 mo.,white rats; untrained rats,302 ± 91 mg/100gk BW
same,ORGAN WEIGHT Heart,white rats; untrained rats,309.4 ± 9.7 mg PER 100 GRAMs Body Weight
same,Oxygen consumption End of experiment,white rats; untrained rats,26.0 ± 0.82 ml/min/kg BW
same,P/S In all rats group,white rats; untrained rats,1.85 ± 0.05
same,P/S In quiet state,white rats; untrained rats,2.01 ± 0.3
same,P/S In rat sacrificed after intense physical exercise,white rats; untrained rats,1.67 ± 0.09
same,Potassium (myocardium),white rats; untrained rats,0481 ± 0.03 mcq/gram dry tissue
same,Sodium (myocardium),white rats; untrained rats,0.261 ± 0.018 mcq/gram dry tissue
same,Swimming time Before,white rats; untrained rats,65 ± 5.0 min
same,"Glycogen in m. quadriceps, After work",white rats; untrained rats,450 ± 28.3
same,"Glycogen in m. quadriceps, In rest",white rats; untrained rats,829 ± 42.0
same,Swimming time After 6 mo.,white rats; untrained rats,70 ± 4.0 min
same,HEART RATE,"white rats; untrained, after 6 months",452 ± 8.6 beats per minute
same,PQ,"white rats; untrained, after 6 months",0.054 ± 0.003
same,QRS,"white rats; untrained, after 6 months",0.026 ± 0.003
same,QT,"white rats; untrained, after 6 months",0.06 ± 0.001
same,Systolic Index,"white rats; untrained, after 6 months",42.5 ± 9.7
same,ΣR,"white rats; untrained, after 6 months",14 ± 0.7 mm
same,Thickness of Left Ventricular Wall,[2]; Day 7,5.2 ± 0.72 mm
same,EKG R,"[2]; Day 7, 100 mg/kg BW each",4.1 ± 0.30 mm
same,NN of Animals With Necrosis,"[2]; Day 7, MI control 10",5
same,EKG Q,[2]; Day 7,1.1 ± 0.03 mm
same,EKG QRS,[2]; Day 14,0.068 ± 0.003 s
same,EKG R,[2]; Day 14,4.3 ± 0.28 mm
same,Thickness of Left Ventricular Wall,[2]; Day 14,5.6 ± 0.21 mm
same,NN of Animals With Necrosis,"[2]; Day 14, MI control 3",0
same,EKG Q,[2]; Day 14,0.8 ± 0.02 mm
same,reduction in necroses,"[2]; administered individually, 100 mg/kg",50%
same,hemorrhages or infiltration in the infarction zone,[2]; by the fourteenth day,virtually had no hemorrhages or infiltration in the infarction zone
same,restoration of EKG readings,[2]; by the seventh experimental day,nearly a complete restoration of the voltage of EKG waves and of the systolic index
